Experiments:
H460 lung carcinoma = assay: Cytotoxicity assay (MTT), 6 days; type: cell-based; conditions: Homo sapiens, NCI-H460, 144 h, 6 days of treatment, read-out: Toxicity 6d (IC 50, μM) H460
Method in brief: (§1)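 Compound was added 24 h after seeding at six concentrations from 0 to 50 μM. Six days later, viability was assessed by MTT reduction and absorbance at 550 nm, giving IC50 values from triplicate assays.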

MCF-7 breast carcinoma = assay: Cytotoxicity assay (MTT), 6 days; type: cell-based; conditions: Homo sapiens, MCF7, 144 h, 6 days of treatment, read-out: Toxicity 6d (IC 50, μM) MCF7
Method in brief: as §1

[1] = test system: MDA-MB-231 breast carcinoma; assay: Cytotoxicity assay (MTT), 6 days; type: cell-based; conditions: Homo sapiens, MDA-MB-231, 144 h, 6 days of treatment, read-out: Toxicity 6d (IC 50, μM) MDA231
Method in brief: as §1

MRC-5 = assay: Cytotoxicity assay (MTT), 6 days; type: cell-based; conditions: Homo sapiens, MRC5, 144 h, 6 days of treatment, read-out: Toxicity 6d (IC 50, μM) MRC-5
Method in brief: as §1

[2] = test system: HCT116 colon adenocarcinoma; assay: Cytotoxicity assay (MTT), 6 days; type: cell-based, human; conditions: Homo sapiens, HCT-116, 144 h, 6 days of treatment, read-out: Toxicity 6d (IC 50, μM) HCT116
Method in brief: as §1

Ras = assay: Ras-dependant signaling pathway analysis (reporter system); type: cell-based; set-up: key: −: no effect of the compound was observed; +: an effect of the compound was observed
Method: (§2) The impact of the compounds on Ras and Rac signaling pathways was analysed with two reporter systems described by Imler (Nature 1988) and Lin (Science, 1995) respectively on one hand, and by a colony formation assay in the presence of constitutively activated Ras (RasV12) and Rac (RacV12) on the other hand. For this latter experiment, fifty percent confluent NIH3T3 cells in a 10 cm diameter petri dish were transfected with 0.5 μg pSV2-RasV12 or 0.5 μg pEXV RacV12 plasmids plus 100 ng of pSV2-neomycin plasmid using Lipofectamine-Plus reagent (Invitrogen) according to the manufacturer's instructions. Forty-eight hours later, cells were trypsinised, splitted to ⅓, and incubated in the presence of complete medium supplemented with 400 μg/ml geneticin (Invitrogen) and different doses of compound (1, 10, 17.5, 25 and 50 μM) until emerging resistant clones appear (2-3 weeks). The medium was renewed every 3 days. Colonies with a minimum of 50 cells were counted after staining with Fuschin 2%.

Rac = assay: Rac-dependant signaling pathway analysis (reporter system); type: cell-based; set-up: key: −: no effect of the compound was observed; +: an effect of the compound was observed
Method: as §2

NIH3T3 cells = assay: Colony formation assay with constitutively activated Ras (RasV12) and Rac (RacV12); type: cell-based, mouse; set-up: key to Colony formation: −: no effect of the compound was observed; +: an effect of the compound was observed
Method: as §2

cell architecture = assay: Cell architecture modification, phase contrast; type: cell-based; set-up: key: −: no effect of the compound was observed; +: an effect of the compound was observed
MDA-MB-231 cells [3] = assay: Migration assay (Boyden chamber, non-coated filters); type: cell-based, human; conditions: MDA-MB-231, Boyden chamber
Method: One day after seeding, 10^6 MDA-MB-231 cells were treated overnight with different concentrations of compounds (1, 10, 17.5, 25 and 50 μM). Cells were collected with Versene (Invitrogen), counted with trypan blue exclusion, rinsed twice in serum-free medium containing 0.1% BSA and resuspended in serum-free medium containing 0.1% BSA plus the appropriate concentration of compound. 10^5 treated cells were placed in the upper chamber. Medium containing 10% of FBS plus the appropriate concentration of compound was placed in the lower chamber as a chemoattractant. The Boyden chamber was incubated 6 hours at 37° C. before the cells were fixed and stained with Diff-Quick (Dade-Berhing). Cells on the upper part of the filters were removed using a cotton swab. Cells on the underside of the filters were visualised and counted under light microscope.
The migration assay was performed the same way, using non-coated filters.

NIH3T3 = assay: Cytoskeleton analysis, actin staining (FITC-phalloidin); type: cell-based, mouse; conditions: for Cell architecture modification actin staining (R: ruffles; FC: focal complexes) NIH3T3: 24 h treatment
Method: Since major rearrangements of cytoskeleton are observed in tumor cells and since the small GTPases are known to regulate these events, analysis of actin cytoskeleton was performed. Subconfluent cells seeded onto coverslips were treated with different concentration of compound (1, 10, 17.5, 25 and 50 μM) or vehicle for 24 h, before being fixed in 4% formaldehyde for 15 min., permeabilized in 0.2% Triton X100 for 5 minutes and incubated in PowerBlock (Biogenex) for 10 min. Actin filaments were stained with 0.5 μg/ml fluorescein isothiocyanate (FITC)-labelled phalloidin for 1 hour. Analysis was performed using an inverted fluorescent microscope.

HCT116 cells = assay: Anchorage-independent cell growth assay in soft agar, Example 32; type: cell-based, human
Method: FIG. 8: Effect of the treatment of HCT116 cells with the compounds on the size of the clones grown in soft agar. 5 10^3 cells were seeded in 24-well plates in 0.3% agar-containing medium supplemented with the designated amount of compounds. After 7 days of incubation at 37° C., pictures were taken of each well and were analyzed using the ImageJ image analysis software. In particular, clone size and number were calculated. The data were analyzed using GraphPad Prism, and IC50 was calculated.
In order to evaluate the effect of one compound on the capacity of tumour cells to grow without anchorage, HCT116 cells were seeded in soft agar. In contrast to microplate assays which average the drug's effects over an entire cell population, clonogenic assays offer the possibility of distinguishing cytotoxic agents (i.e., decreased colony number) from cytostatic agents (i.e., decreased colony size without decreased colony number; Murphy M. J. et al., 1996).
Briefly, 5 10^3 HCT116 cells were resuspended in 300 pi of complete medium containing 0.3% soft-agar (Difco) and different concentrations of compound (8 concentrations ranging from 0 to 30 μM). Cells were then poured on a solidified layer of medium containing 0.5% of soft agar plus the compound at the same concentration as in the upper layer. Cells were incubated for 7 days' at 37° C. before pictures of each well were taken using a phase contrast microscope (Nikon) and a digital camera (Nikon Coolpix 990). Pictures were subsequently analyzed using a free image analysis software from the NIH (ImageJ) allowing to determine clones size and number.
Data was analyzed using the GraphPad Prism software, and IC50 (dose leading to a 50% decrease of clone size or number) was calculated from dose-response curves. The ratio IC50 clone size/IC50 clone number was then calculated. When this ratio is equal to 1 (IC50 size=IC50 number), the compound is referred to as “cytotoxic”. When the ratio is close to 0 (IC50 size<<IC50 number), the compound is referred to as “cytostatic” (FIG. 6).

MDA-MB-231 cells [4] = assay: Migration assay (Fluoroblock inserts), Example 32; type: cell-based, human; conditions: 16 hours
Method: FIG. 10: Migration of MDA-MB-231 cells in the presence of various concentrations of L651582, and EHT 0823. 5 10^4 MDA-MB-231 cells, resuspended in culture medium with or without Fetal Bovine Serum (FBS), were seeded in the upper Boyden blind well on top of 8 μm pore-sized filters. The ability of cells to migrate through the filter was assayed in the absence or presence of FBS in the lower Boyden well. After incubation at 37° C. for 16 hours, the medium was removed and replaced with calcein containing medium. After labelling, cells were washed and resuspended in HBSS and fluorescence was read in a fluoroskan. Fluorescence values were normalized against the fluorescence obtained for the 1% DMSO control. The data plotted are the means±SEM for 2 wells under the different conditions.
An essential characteristic of malignant cells is their ability to migrate, invade host tissues and to produce metastases. In order to evaluate the capacity of one compound to affect the ability of tumoral cells to migrate, migration assays were performed using highly invasive tumoral cells MDA-MB-231. This assay was performed using Falcon HTS Fluoroblock inserts. Culture medium containing Fetal Bovine Serum (FBS; which is used as a chemoattractant) was added to the plate wells and 2 10^4 MDA-MB-231 cells resuspended in medium without FBS and with 0.1% BSA were added to each insert well. The compound of interest was added to the medium in both the upper and the lower chambers. Plate were incubated for 16 hours at 37° C. Following incubation, the medium was removed from the upper chamber and the entire insert plate was transferred to a second 24-well plate containing 4 μg/ml Calcein-AM in medium containing 0.1% BSA. The plates were incubated for one hour at 37° C., rinsed with Hanks Buffered Saline (HBSS). Fluorescence data were collected using Fluoroskan Ascent FL fluorescence plate reader at an excitation wavelength (Ex) of 485 nm and emission wavelength (Em) of 517 nm. Only those labelled cells that passed through the Matrigel layer and the membrane were detected. Data were analyzed using the GraphPad Prism software.

HCT116 = assay: Cell viability assay (MTT), Example 32; type: cell-based, human; conditions: Homo sapiens, HCT-116, 144 h; day 6, 10% FBS
Method: FIG. 7: Antiproliferative effect of compounds on HCT116 (top) and MDA-MB-231 (bottom) cell lines measured by MTT viability assay. 2.5 10^3 (HCT116) or 7.5 10^3 (MDA-MB-231) cells were seeded in 48-well plates in growth medium containing 10% FBS, with or without various concentrations of test compounds. Cell cultures were fed every 3 days with the appropriate media. Cell viability was determined on day 6. Data were analyzed and IC50s were calculated from the dose-response curves using GraphPad Prism.
In order to determine one compound effect on cell viability, microculture tetrazolium assay (MTT) was performed as described by Carmichael et al., (1996) with modifications. Four human tumoral cell lines, namely HCT116 colon adenocarcinoma, H460 lung carcinoma, MCF-7 and MDA-MB-231 breast carcinoma cell lines, and 3 immortalized but non tumorigenic cell lines, namely NIH3T3 mouse fibroblasts and human breast-derived MCF10-A and human lung-derived MRC-5 were purchased at ATCC and cultured according to their recommendations. Briefly, 2.5 10^3 to 2 10^4 cells per well were seeded in 48-well plates 24 hours before drug addition. Cells were treated with 0 to 200 μM (11 concentrations) of compound solubilized in DMSO, adjusting the final concentration of DMSO to 1% in the well. Six days after treatment, the medium was replaced by PBS containing 0.5 mg/ml MTT (Sigma) and cells were incubated for 1-3 hours at 37° C. before solubilization of formazan crystals in 100% DMSO. Absorbance was measured using a spectrophotometer at a wavelength of 550 nm. Data was analyzed using the GraphPad Prism software (GraphPad Software, Inc., San Diego, USA), and IC50 (dose leading to 50% cell death) was calculated from the dose-response curves.

Structure (SMILES)	IC50 (H460 lung carcinoma) [µM]	IC50 (MCF-7 breast carcinoma) [µM]	IC50 [1] [µM]	IC50 (MRC-5) [µM]	IC50 [2] [µM]	Small GTPases activities Ras (Ras)	Small GTPases activities Rac (Rac)	Colony formation (NIH3T3 cells)	Cell architecture modification phase contrast (cell architecture)	Migration (MDA-MB-231 cells [3])	general morphology of NIH3T3 cells, as detected by β-actin staining (NIH3T3)	Cell architecture modification actin staining (R: ruffles; FC: focal complexes) NIH3T3 (NIH3T3)	mode of action (cytotoxic vs cytostatic) (HCT116 cells; HCT116 soft agar)	ratio IC50 clone size/IC50 clone number (HCT116 cells; HCT116 soft agar, 7 days)	inhibition of migration of MDA-MB-231 cells (MDA-MB-231 cells [4]; 50 μM compound)	inhibition at 10 µM (MDA-MB-231 cells [4]; Homo sapiens, MDA-MB-231, 10 μM compound) [%]	IC50 (HCT116) [µM]	IC50 anchorage-independent growth of HCT116 (clone size) in soft agar (HCT116 cells; 7 days)	inhibition of migration of MDA-MB-231 cells (MDA-MB-231 cells [4]; 10 μM compound)	inhibition at 50 µM (MDA-MB-231 cells [4]; Homo sapiens, MDA-MB-231, 50 μM compound) [%]
O=c1cc(CO)occ1OCCCCOc1ccc(Cl)c(Cl)c1 [EH17700, 5-[4-(3,4-Dichlorophenyloxy)butyloxy]-2-(hydroxymethyl)-4H-pyran-4-one]	15	20	15 to 20	> 50	30	−	−	−	−	no effect										
O=c1cc(CO)occ1OCCCCCOc1cccc(Cl)c1 [EH10600, 5-[5-(3-Chlorophenyloxy)pentyloxy]-2-(hydroxymethyl)-4H-pyran-4-one]	25	40	10		> 50	−	−	−	+		affected	cell destructuration								
O=c1cc(CO)occ1OCCCCCOc1ccc(Cl)c(Cl)c1 [EH5500, 5-[5-(3,4-Dichlorophenyloxy)pentyloxy]-2-(hydroxymethyl)-4H-pyran-4-one]	15	35	> 50		50	−	−	−	+		affected	cell destructuration								
NC(=O)c1nnn(Cc2cc(Cl)c(C(=O)c3ccc(Cl)cc3)c(Cl)c2)c1N [L651582, carboxyamidotriazole, reference compound]													cytostatic	0.3	Complete inhibition	~40				
O=c1cc(COC2CCCCO2)occ1OCCCCCn1ccc2cc(Cl)ccc21 (centres unmarked) [EHT 0823, 5-[5-(5-Chloro-indol-1-yl)-pentyloxy]-2-(tetrahydro-pyran-2-yloxymethyl)-4H-pyran-4-one]																	1.5 to 4	micromolar range	No significant inhibition	90
